From US7138361B2, “Herbicidal heterocycles” (E. I. du Pont de Nemours and Company, priority 2000, dated 2006)

What was measured:
Assay in all cases: Test C preemergence
Format in all cases: in vivo
[1] = tested on: pigweed (Amaranthus retroflexus); conditions: for Plant response rating (0 to 100), Pigweed: visual evaluation after 12 to 14 days
How it was run: (§1)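 Visual injury scores of 0–100, with 100 meaning complete control, were given relative to controls after 12–14 days in the greenhouse. Treatments used a surfactant-containing non-phytotoxic solvent formulation, sprayed on seeded pots preemergence or on 1–4-leaf plants of 2–18 cm postemergence.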

[2] = tested on: giant foxtail (Setaria faberii); conditions: for Plant response rating (0 to 100), Foxtail, Giant: visual evaluation after 12 to 14 days
How it was run: as §1

[3] = tested on: yellow nutsedge (Cyperus esculentus); conditions: for Plant response rating (0 to 100), Nutsedge: visual evaluation after 12 to 14 days
How it was run: as §1

[4] = tested on: bermudagrass (Cynodon dactylon); conditions: for Plant response rating (0 to 100 where 0 is no effect and 100 is complete control), Bermudagrass: visual evaluation after 12 to 14 days
How it was run: as §1

[5] = tested on: Sunflower
[6] = Preemergence, Rate 500 g/ha, scale 0 to 100
[7] = Rate 62 g/ha, scale 0 to 100, 0 no effect, 100 complete control
[8] = preemergence, Rate 125 g/ha, scale 0 to 100, 0 no effect, 100 complete control
[9] = Rate 125 g/ha, scale 0 to 100, 0 no effect, 100 complete control
[10] = preemergence, Rate 62 g/ha, scale 0 to 100
[11] = preemergence, Rate 250 g/ha, scale 0 to 100, 0 no effect, 100 complete control
[12] = preemergence, Rate 31 g/ha, scale 0 to 100

CC(C)(C)c1ccn(C2CCN(c3cccc(C(F)(F)F)c3)C2=S)n1 (stereo not drawn) [Compound 22]
Plant response rating, Pigweed [1, 6]: 100
Plant response rating, Pigweed [1, 7]: 100
Plant response rating (0 to 100), Pigweed ([1]; preemergence, Rate 250 g/ha): 50
Plant response rating, Pigweed [1, 8]: 50
Plant response rating, Foxtail, Giant [2, 6]: 100
Plant response rating, Foxtail, Giant [2, 7]: 30
Plant response rating (0 to 100), Foxtail, Giant ([2]; preemergence, Rate 250 g/ha): 0
Plant response rating, Foxtail, Giant [2, 8]: 0
Plant response rating, Nutsedge [3, 6]: 20
Plant response rating, Nutsedge [3, 7]: 0
Plant response rating (0 to 100), Nutsedge ([3]; preemergence, Rate 250 g/ha): 0
Plant response rating, Nutsedge [3, 8]: 0
Plant response rating, Bermudagrass [4, 6]: 100
Plant response rating, Bermudagrass [4, 7]: 30
Plant response rating (0 to 100 where 0 is no effect and 100 is complete control), Bermudagrass ([4]; preemergence, Rate 250 g/ha): 100
Plant response rating, Bermudagrass [4, 8]: 100
Plant response rating, Sunflower [5, 7]: 0
Plant response rating, Sunflower ([5]; Rate 500 g/ha, scale 0 to 100): 0

CCC(CC)c1ccn(C2CCN(c3ccc(Cl)c(OC)c3)C2=O)n1 (stereo not drawn) [Compound 118]
Plant response rating, Pigweed [1, 9]: 100
Plant response rating, Pigweed [1, 10]: 75
Plant response rating (0 to 100), Pigweed ([1]; preemergence, Rate 500 g/ha): 100
Plant response rating, Pigweed [1, 11]: 100
Plant response rating, Foxtail, Giant [2, 9]: 100
Plant response rating, Foxtail, Giant [2, 10]: 0
Plant response rating (0 to 100), Foxtail, Giant ([2]; preemergence, Rate 500 g/ha): 100
Plant response rating, Foxtail, Giant [2, 11]: 100
Plant response rating, Nutsedge [3, 9]: 0
Plant response rating, Nutsedge [3, 10]: 0
Plant response rating (0 to 100), Nutsedge ([3]; preemergence, Rate 500 g/ha): 0
Plant response rating, Nutsedge [3, 11]: 0
Plant response rating, Bermudagrass [4, 9]: 100
Plant response rating, Bermudagrass [4, 10]: 100
Plant response rating (0 to 100 where 0 is no effect and 100 is complete control), Bermudagrass ([4]; preemergence, Rate 500 g/ha): 100
Plant response rating, Bermudagrass [4, 11]: 100
Plant response rating, Sunflower [5, 9]: 50

CCOc1cccc(N2CCC(n3ccc(C(C)(C)C)n3)C2=O)c1 (stereo not drawn) [Compound 130]
Plant response rating, Pigweed [1, 9]: 100
Plant response rating, Pigweed [1, 10]: 100
Plant response rating (0 to 100), Pigweed ([1]; preemergence, Rate 500 g/ha): 100
Plant response rating, Pigweed [1, 11]: 100
Plant response rating, Foxtail, Giant [2, 9]: 100
Plant response rating, Foxtail, Giant [2, 10]: 90
Plant response rating (0 to 100), Foxtail, Giant ([2]; preemergence, Rate 500 g/ha): 100
Plant response rating, Foxtail, Giant [2, 11]: 100
Plant response rating, Nutsedge [3, 9]: 80
Plant response rating, Nutsedge [3, 10]: 30
Plant response rating (0 to 100), Nutsedge ([3]; preemergence, Rate 500 g/ha): 100
Plant response rating, Nutsedge [3, 11]: 100
Plant response rating, Bermudagrass [4, 9]: 100
Plant response rating, Bermudagrass [4, 10]: 100
Plant response rating (0 to 100 where 0 is no effect and 100 is complete control), Bermudagrass ([4]; preemergence, Rate 500 g/ha): 100
Plant response rating, Bermudagrass [4, 11]: 100
Plant response rating, Sunflower [5, 9]: 60

CCCC(C)c1ccn(C2OCN(c3cccc(OC(F)F)c3)C2=O)n1 (stereo not drawn) [Compound 132]
Plant response rating, Pigweed [1, 9]: 30
Plant response rating, Pigweed [1, 10]: 0
Plant response rating (0 to 100), Pigweed ([1]; preemergence, Rate 500 g/ha): 100
Plant response rating, Pigweed [1, 11]: 70
Plant response rating, Foxtail, Giant [2, 9]: 70
Plant response rating, Foxtail, Giant [2, 10]: 70
Plant response rating (0 to 100), Foxtail, Giant ([2]; preemergence, Rate 500 g/ha): 100
Plant response rating, Foxtail, Giant [2, 11]: 100
Plant response rating, Nutsedge [3, 9]: 0
Plant response rating, Nutsedge [3, 10]: 0
Plant response rating (0 to 100), Nutsedge ([3]; preemergence, Rate 500 g/ha): 90
Plant response rating, Nutsedge [3, 11]: 0
Plant response rating, Bermudagrass [4, 9]: 100
Plant response rating, Bermudagrass [4, 10]: 100
Plant response rating (0 to 100 where 0 is no effect and 100 is complete control), Bermudagrass ([4]; preemergence, Rate 500 g/ha): 100
Plant response rating, Bermudagrass [4, 11]: 100
Plant response rating, Sunflower [5, 9]: 20

CC(C)(C)c1ccn(C2OCN(c3cccc(OC(F)F)c3)C2=O)n1 (stereo not drawn) [Compound 133]
Plant response rating, Pigweed [1, 9]: 100
Plant response rating, Pigweed [1, 10]: 50
Plant response rating (0 to 100), Pigweed ([1]; preemergence, Rate 500 g/ha): 100
Plant response rating, Pigweed [1, 11]: 100
Plant response rating, Foxtail, Giant [2, 9]: 100
Plant response rating, Foxtail, Giant [2, 10]: 90
Plant response rating (0 to 100), Foxtail, Giant ([2]; preemergence, Rate 500 g/ha): 100
Plant response rating, Foxtail, Giant [2, 11]: 100
Plant response rating, Nutsedge [3, 10]: 70
Plant response rating (0 to 100), Nutsedge ([3]; preemergence, Rate 500 g/ha): 90
Plant response rating, Nutsedge [3, 11]: 90
Plant response rating, Bermudagrass [4, 9]: 100
Plant response rating, Bermudagrass [4, 10]: 100
Plant response rating (0 to 100 where 0 is no effect and 100 is complete control), Bermudagrass ([4]; preemergence, Rate 500 g/ha): 100
Plant response rating, Bermudagrass [4, 11]: 100
Plant response rating, Sunflower [5, 9]: 0

CCC(C)c1ccn(C2OCN(c3cccc(OC(F)F)c3)C2=O)n1 (stereo not drawn) [Compound 134]
Plant response rating, Pigweed [1, 9]: 100
Plant response rating, Pigweed [1, 10]: 100
Plant response rating (0 to 100), Pigweed ([1]; preemergence, Rate 500 g/ha): 100
Plant response rating, Pigweed [1, 11]: 100
Plant response rating, Foxtail, Giant [2, 9]: 100
Plant response rating, Foxtail, Giant [2, 10]: 90
Plant response rating (0 to 100), Foxtail, Giant ([2]; preemergence, Rate 500 g/ha): 100
Plant response rating, Foxtail, Giant [2, 11]: 100
Plant response rating, Nutsedge [3, 9]: 70
Plant response rating, Nutsedge [3, 10]: 60
Plant response rating (0 to 100), Nutsedge ([3]; preemergence, Rate 500 g/ha): 100
Plant response rating, Nutsedge [3, 11]: 90
Plant response rating, Bermudagrass [4, 9]: 100
Plant response rating, Bermudagrass [4, 10]: 100
Plant response rating (0 to 100 where 0 is no effect and 100 is complete control), Bermudagrass ([4]; preemergence, Rate 500 g/ha): 100
Plant response rating, Bermudagrass [4, 11]: 100
Plant response rating, Sunflower [5, 9]: 0

Cc1cc(C)nc(N2CCC(n3ccc(C(C)(C)C)n3)C2=O)c1 (stereo not drawn) [Compound 138]
Plant response rating, Pigweed [1, 9]: 50
Plant response rating, Pigweed [1, 12]: 0
Plant response rating, Pigweed [1, 10]: 30
Plant response rating, Pigweed [1, 11]: 50
Plant response rating, Foxtail, Giant [2, 9]: 100
Plant response rating, Foxtail, Giant [2, 12]: 50
Plant response rating, Foxtail, Giant [2, 10]: 80
Plant response rating, Foxtail, Giant [2, 11]: 100
Plant response rating, Nutsedge [3, 9]: 0
Plant response rating, Nutsedge [3, 12]: 0
Plant response rating, Nutsedge [3, 10]: 0
Plant response rating, Nutsedge [3, 11]: 40
Plant response rating, Bermudagrass [4, 9]: 70
Plant response rating, Bermudagrass [4, 12]: 60
Plant response rating, Bermudagrass [4, 10]: 70
Plant response rating, Bermudagrass [4, 11]: 100
Plant response rating, Sunflower [5, 9]: 0

CCC(CC)c1ccn(C2CCN(c3ccc(F)c(C(F)(F)F)c3)C2=O)n1 (stereo not drawn) [Compound 144]
Plant response rating, Pigweed [1, 9]: 100
Plant response rating, Pigweed [1, 10]: 100
Plant response rating (0 to 100), Pigweed ([1]; preemergence, Rate 500 g/ha): 100
Plant response rating, Pigweed [1, 11]: 100
Plant response rating, Foxtail, Giant [2, 9]: 100
Plant response rating, Foxtail, Giant [2, 10]: 100
Plant response rating (0 to 100), Foxtail, Giant ([2]; preemergence, Rate 500 g/ha): 100
Plant response rating, Foxtail, Giant [2, 11]: 100
Plant response rating, Nutsedge [3, 9]: 0
Plant response rating, Nutsedge [3, 10]: 0
Plant response rating (0 to 100), Nutsedge ([3]; preemergence, Rate 500 g/ha): 0
Plant response rating, Nutsedge [3, 11]: 0
Plant response rating, Bermudagrass [4, 9]: 100
Plant response rating, Bermudagrass [4, 10]: 100
Plant response rating (0 to 100 where 0 is no effect and 100 is complete control), Bermudagrass ([4]; preemergence, Rate 500 g/ha): 100
Plant response rating, Bermudagrass [4, 11]: 100
Plant response rating, Sunflower [5, 9]: 40

CCC(C)c1ccn(C2CCN(c3ccc(F)c(C(F)(F)F)c3)C2=O)n1 (stereo not drawn) [Compound 145]
Plant response rating, Pigweed [1, 9]: 100
Plant response rating, Pigweed [1, 10]: 100
Plant response rating (0 to 100), Pigweed ([1]; preemergence, Rate 500 g/ha): 100
Plant response rating, Pigweed [1, 11]: 100
Plant response rating, Foxtail, Giant [2, 9]: 100
Plant response rating, Foxtail, Giant [2, 10]: 100
Plant response rating (0 to 100), Foxtail, Giant ([2]; preemergence, Rate 500 g/ha): 100
Plant response rating, Foxtail, Giant [2, 11]: 100
Plant response rating, Nutsedge [3, 9]: 0
Plant response rating, Nutsedge [3, 10]: 0
Plant response rating (0 to 100), Nutsedge ([3]; preemergence, Rate 500 g/ha): 0
Plant response rating, Nutsedge [3, 11]: 0
Plant response rating, Bermudagrass [4, 9]: 100
Plant response rating, Bermudagrass [4, 10]: 60
Plant response rating (0 to 100 where 0 is no effect and 100 is complete control), Bermudagrass ([4]; preemergence, Rate 500 g/ha): 100
Plant response rating, Bermudagrass [4, 11]: 100
Plant response rating, Sunflower [5, 9]: 0
